# Patent publication US6472348B1, “Pyridone derivatives and herbicides” (Kumiai Chemical Industry Co., Ltd., priority 1996, dated 2002)
# What was measured:
# [1] = system: barnyardgrass (Ec); test: Test Example 3: herbicidal effects by upland field foliage treatment; type: in vivo; parameters: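 grade of growth control; 5 = at least 90%; 4 = 70 to 90%; 3 = 50 to 70%; 2 = 30 to 50%; 1 = 10 to 30%; 0 = under 10%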
# Method in brief: (§1)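 Weeds were sown in sand-filled pots (surface area: 120 cm^2), covered with soil and grown in a greenhouse for 2 weeks before foliar treatment. Plants then stayed in the greenhouse, and herbicidal effect was scored against graded standards on the 14th day after treatment.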
# [2] = system: Diaitaria ciliaris (Di); test: as above; type: in vivo; parameters: scale not given here
# Method in brief: as §1
# [3] = system: rice flatsedge (Ci); test: as above; type: in vivo; parameters: scale not given here
# Method in brief: as §1
# [4] = system: common lambsquarters (Ch); test: as above; type: in vivo; parameters: scale not given here
# Method in brief: as §1
# [5] = system: slender amaranth (Am); test: as above; type: in vivo; parameters: scale not given here
# Method in brief: as §1
# [6] = system: pale smartweed (Po); test: as above; type: in vivo; parameters: scale not given here
# Method in brief: as §1
# [7] = system: barnyardgrass (Ec); test: Test Example 2: herbicidal effects by upland field soil treatment; type: in vivo; details: 100 g of the active ingredient per 10 ares;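 note: grade of growth control; 5 = at least 90%; 4 = 70 to 90%; 3 = 50 to 70%; 2 = 30 to 50%; 1 = 10 to 30%; 0 = under 10%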
# Source text: (§2) (Test on Herbicidal Effects by Upland Field Soil Treatment)
# [8] = system: Digitaria ciliaris (Di); test: as above; type: in vivo; details: 100 g of the active ingredient per 10 ares;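 note: grade of growth control; 5 = at least 90%; 4 = 70 to 90%; 3 = 50 to 70%; 2 = 30 to 50%; 1 = 10 to 30%; 0 = under 10%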
# Source text: as §2
# [9] = system: rice flatsedge (Ci); test: as above; type: in vivo; details: 100 g of the active ingredient per 10 ares
# Source text: as §2
# [10] = system: common lambsquarters (Ch); test: as above; type: in vivo; details: 100 g of the active ingredient per 10 ares
# Source text: as §2
# [11] = system: slender amaranth (Am); test: as above; type: in vivo; details: 100 g of the active ingredient per 10 ares
# Source text: as §2
# [12] = system: pale smartweed (Po); test: as above; type: in vivo; details: 100 g of the active ingredient per 10 ares
# Source text: as §2
# [13] = system: cotton (Go); test: Test Example 4: crop plant selectivity by upland field soil treatment (cotton), phytotoxicity; type: in vivo; parameters: scale not given here; details: dose 6.3 g ai/10 a, evaluated 21st day after application
# Method in brief: (§3)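 Seeds of cotton and several weed species were sown in sand-filled pots and covered with soil before soil treatment with the test compound. Plants were grown in a greenhouse, and herbicidal effect and crop phytotoxicity were scored against set standards 21 days after application.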
# [14] = system: common lambsquarters (Ch); test: Test Example 4: crop plant selectivity by upland field soil treatment (cotton), herbicidal effects; type: in vivo; parameters: scale not given here; details: dose 6.3 g ai/10 a, evaluated 21st day after application
# Method in brief: as §3
# [15] = system: slender amaranth (Am); test: as above; type: in vivo; parameters: scale not given here; details: dose 6.3 g ai/10 a, evaluated 21st day after application
# Method in brief: as §3
# [16] = system: pale smartweed (Po); test: as above; type: in vivo; parameters: scale not given here; details: dose 6.3 g ai/10 a, evaluated 21st day after application
# Method in brief: as §3
# [17] = system: green foxtail (Se); test: as above; type: in vivo; parameters: scale not given here; details: dose 6.3 g ai/10 a, evaluated 21st day after application
# Method in brief: as §3
# [18] = system: China jute (Ab); test: as above; type: in vivo; parameters: scale not given here; details: dose 6.3 g ai/10 a, evaluated 21st day after application
# Method in brief: as §3
# [19] = system: monochoria (Mo); test: Test Example 1: herbicidal effects by paddy field soil treatment; type: in vivo; details: 100 g of the active ingredient per 10 ares, 21st day after the application, index 0-5 of Table 47;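 note: grade of growth control; 5 = at least 90%; 4 = 70 to 90%; 3 = 50 to 70%; 2 = 30 to 50%; 1 = 10 to 30%; 0 = under 10%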
# Method in brief: (§4)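 Herbicidal effect was scored against a graded standard 21 days after treatment. Seeds were sown in puddled, leveled paddy soil flooded to 3 cm depth, and the active ingredient was applied at 100 g per 10 ares before greenhouse culture.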
# [20] = system: barnyardgrass (Ec); test: as above; type: in vivo; details: 100 g of the active ingredient per 10 ares, 21st day after the application, index 0-5 of Table 47
# Method in brief: as §4
# [21] = system: bulrush (Sc); test: as above; type: in vivo; details: 100 g of the active ingredient per 10 ares, 21st day after the application, index 0-5 of Table 47;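 note: grade of growth control; 5 = at least 90%; 4 = 70 to 90%; 3 = 50 to 70%; 2 = 30 to 50%; 1 = 10 to 30%; 0 = under 10%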
# Method in brief: as §4
# [22] = system: common lambsquarters (Ch); test: Test Example 5: crop plant selectivity by upland field soil treatment (wheat), herbicidal effects; type: in vivo; parameters: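 grade of growth control; 5 = at least 90%; 4 = 70 to 90%; 3 = 50 to 70%; 2 = 30 to 50%; 1 = 10 to 30%; 0 = under 10%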; details: dose 6.3 g ai/10a, 21st day after application
# Method in brief: (§5)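 Wheat and weeds were sown in sand-filled pots and covered with soil, then treated by soil application. Plants grew in a greenhouse, and herbicidal effect and crop phytotoxicity were scored on a rating scale 21 days after application.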
# [23] = system: slender amaranth (Am); test: as above; type: in vivo; parameters: scale not given here; details: dose 6.3 g ai/10a, 21st day after application
# Method in brief: as §5
# [24] = system: pale smartweed (Po); test: as above; type: in vivo; parameters: scale not given here; details: dose 6.3 g ai/10a, 21st day after application
# Method in brief: as §5
# [25] = system: green foxtail (Se); test: as above; type: in vivo; parameters: scale not given here; details: dose 6.3 g ai/10a, 21st day after application
# Method in brief: as §5
# [26] = system: China jute (Ab); test: as above; type: in vivo; parameters: scale not given here; details: dose 6.3 g ai/10a, 21st day after application
# Method in brief: as §5
# [27] = system: wheat (Tr); test: Test Example 5: crop plant selectivity by upland field soil treatment (wheat), phytotoxicity; type: in vivo; parameters: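 grade of crop injury; 5 = at least 90%; 4 = 70 to 90%; 3 = 50 to 70%; 2 = 30 to 50%; 1 = 10 to 30%; 0 = under 10%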; details: dose 6.3 g ai/10a, 21st day after application
# Method in brief: as §5
# [28] = system: soybean (Gl); test: Test Example 6: crop plant selectivity by upland field soil treatment (soybean), phytotoxicity; type: in vivo; parameters: scale not given here; details: dose 6.3 g ai/10a, 21st day after application
# Method in brief: (§6)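 Soybean and weed seeds were sown in sand-filled pots and covered with soil, then given a pre-emergence soil application. Plants were grown on in a greenhouse, and herbicidal effect and crop phytotoxicity were scored against a set rating scale 21 days after application.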
# [29] = system: common lambsquarters (Ch); test: Test Example 7: crop plant selectivity by upland field soil treatment (corn), herbicidal effects; type: in vivo; parameters: scale not given here; details: dose 6.3 g ai/10a, 21st day after application
# Method in brief: (§7)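 Corn and weed seeds were sown in sand-filled pots and covered with soil. After application, plants were grown in a greenhouse, and herbicidal effect and crop phytotoxicity were scored against fixed rating standards on day 21.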
# [30] = system: slender amaranth (Am); test: as above; type: in vivo; parameters: scale not given here; details: dose 6.3 g ai/10a, 21st day after application
# Method in brief: as §7
# [31] = system: pale smartweed (Po); test: as above; type: in vivo; parameters: scale not given here; details: dose 6.3 g ai/10a, 21st day after application
# Method in brief: as §7
# [32] = system: green foxtail (Se); test: as above; type: in vivo; parameters: scale not given here; details: dose 6.3 g ai/10a, 21st day after application
# Method in brief: as §7
# [33] = system: China jute (Ab); test: as above; type: in vivo; parameters: scale not given here; details: dose 6.3 g ai/10a, 21st day after application
# Method in brief: as §7
# [34] = system: corn (Ze); test: Test Example 7: crop plant selectivity by upland field soil treatment (corn), phytotoxicity; type: in vivo; parameters: scale not given here; details: dose 6.3 g ai/10a, 21st day after application
# Method in brief: as §7
# [35] = system: common lambsquarters (Ch); test: Test Example 6: crop plant selectivity by upland field soil treatment (soybean), herbicidal effects; type: in vivo; parameters: scale not given here; details: dose 6.3 g ai/10a, 21st day after application
# Method in brief: as §6
# [36] = system: slender amaranth (Am); test: as above; type: in vivo; parameters: scale not given here; details: dose 6.3 g ai/10a, 21st day after application
# Method in brief: as §6
# [37] = system: pale smartweed (Po); test: as above; type: in vivo; parameters: scale not given here; details: dose 6.3 g ai/10a, 21st day after application
# Method in brief: as §6
# [38] = system: green foxtail (Se); test: as above; type: in vivo; parameters: scale not given here; details: dose 6.3 g ai/10a, 21st day after application
# Method in brief: as §6
# [39] = system: China jute (Ab); test: as above; type: in vivo; parameters: scale not given here; details: dose 6.3 g ai/10a, 21st day after application
# Method in brief: as §6
# [40] = system: common lambsquarters (Ch); test: Test Example 11: crop plant selectivity by upland field foliage treatment (corn), herbicidal effects; type: in vivo; parameters: scale not given here; details: upland field foliage treatment (corn test), dose 1.6 g ai/10a, 14th day after treatment
# Method in brief: (§8)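 Corn with pale smartweed, slender amaranth, common lambsquarters and China jute sown in sand-filled pots and grown 2 weeks in a greenhouse before foliage treatment. Herbicidal effect and crop phytotoxicity scored on day 14 after treatment against a rating standard.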
# [41] = system: slender amaranth (Am); test: as above; type: in vivo; parameters: scale not given here; details: upland field foliage treatment (corn test), dose 1.6 g ai/10a, 14th day after treatment
# Method in brief: as §8
# [42] = system: pale smartweed (Po); test: as above; type: in vivo; parameters: scale not given here; details: upland field foliage treatment (corn test), dose 1.6 g ai/10a, 14th day after treatment
# Method in brief: as §8
# [43] = system: China jute (Ab); test: as above; type: in vivo; parameters: scale not given here; details: upland field foliage treatment (corn test), dose 1.6 g ai/10a, 14th day after treatment
# Method in brief: as §8
# [44] = system: corn (Ze); test: Test Example 11: crop plant selectivity by upland field foliage treatment (corn), phytotoxicity; details: upland field foliage treatment, dose 1.6 g ai/10a, 14th day after treatment
# Method in brief: as §8
# [45] = 100 g of the active ingredient per 10 ares, evaluated on the 14th day after treatment
# [46] = 21st day after the application, index 0-5 of Table 47
# [47] = 100 g active ingredient per 10 ares, evaluated 14th day after treatment
# [48] = evaluated on the 21st day after application
SMILES,Phytotoxicity Go [13],Herbicidal effects Ch [14],Herbicidal effects Am [15],Herbicidal effects Po [16],Herbicidal effects Se [17],Herbicidal effects Ab [18],Herbicidal effects Mo [19],Herbicidal effects Ec [20],Herbicidal effects Sc [21],Herbicidal effects Ch [22],Herbicidal effects Am [23],Herbicidal effects Po [24],Herbicidal effects Se [25],Herbicidal effects Ab [26],Phytotoxicity Tr [27],melting point,"Herbicidal effects Ec [7, 48]","Herbicidal effects Di [8, 48]","Herbicidal effects Ci [9, 48]","Herbicidal effects Ch [10, 48]",also measured
"CNS(=O)(=O)c1cc(-c2ccc(C(F)(F)F)n(C)c2=O)c(F)cc1Cl [Compound No. 1-71, 3-(4-chloro-2-fluoro-5-methylsulfamoylphenyl)-1-methyl-6-trifluoromethyl-2(1H)-pyridone]",1,5,5,5,5,5,5,5,5,5,5,5,5,5,2,150 to 151 °C,,,,,"Herbicidal effects Ec [1, 45]: 5; Herbicidal effects Di [2, 45]: 5; Herbicidal effects Ci [3, 45]: 5; Herbicidal effects Ch [4, 45]: 5; Herbicidal effects Am [5, 45]: 5; Herbicidal effects Po [6, 45]: 5; Herbicidal effects Ec [7, 46]: 5; Herbicidal effects Di [8, 46]: 5; Herbicidal effects Ci [9, 46]: 5; Herbicidal effects Ch [10, 46]: 5; Herbicidal effects Am [11, 46]: 5; Herbicidal effects Po [12, 46]: 5"
"Cn1c(C(F)(F)F)ccc(-c2c(F)cc(Cl)c3oc(CBr)cc23)c1=O [Compound No. 4-7, 3-(2-bromomethyl-7-chloro-5-fluorobenzofuran-4-yl)-1-methyl-6-trifluoromethyl-2-(1H)-pyridone]",1,5,5,5,5,5,5,5,5,5,5,5,5,5,1,142 to 144 °C,5,5,5,5,"Herbicidal effects Ec [1, 47]: 5; Herbicidal effects Di [2, 47]: 5; Herbicidal effects Ci [3, 47]: 5; Herbicidal effects Ch [4, 47]: 5; Herbicidal effects Am [5, 47]: 5; Herbicidal effects Po [6, 47]: 5; Phytotoxicity Gl [28]: 1; Herbicidal effects Am [11, 48]: 5; Herbicidal effects Po [12, 48]: 5; Herbicidal effects Ch [29]: 5; Herbicidal effects Am [30]: 5; Herbicidal effects Po [31]: 5; Herbicidal effects Se [32]: 5; Herbicidal effects Ab [33]: 5; Phytotoxicity Ze [34]: 2; Herbicidal effects Ch [35]: 5; Herbicidal effects Am [36]: 5; Herbicidal effects Po [37]: 5; Herbicidal effects Se [38]: 5; Herbicidal effects Ab [39]: 5"
"Cn1c(C(F)(F)F)ccc(-c2c(F)cc(Cl)c3oc(C(=O)O)cc23)c1=O [Compound No. 4-26, 3-(2-carboxy-7-chloro-5-fluorobenzofuran-4-yl)-1-methyl-6-trifluoromethyl-2-(1H)-pyridone]",,,,,,,5,5,5,,,,,,,233 to 235 °C,5,5,5,5,"Herbicidal effects Am [11, 48]: 5; Herbicidal effects Po [12, 48]: 5; Herbicidal effects Ch [40]: 5; Herbicidal effects Am [41]: 5; Herbicidal effects Po [42]: 5; Herbicidal effects Ab [43]: 5; Phytotoxicity Ze [44]: 1"
